In the NIST ThermoML archive (doi:10.1016/j.jct.2016.07.029):
± gives the expanded uncertainty stated by the source.

Assay: excess molar enthalpy (molar enthalpy of mixing); xn = mol fraction of the nth substance listed
Conditions: 100 kPa, Liquid, Calvet calorimetry

[Zn] [zinc] + [Ga]
Conditions	excess molar enthalpy [kcal/mol]
722 K, x1 = 0.0966	0.125 ± 0.0406
722 K, x1 = 0.132	0.161 ± 0.0229
722 K, x1 = 0.1679	0.205 ± 0.0406
722 K, x1 = 0.237	0.272 ± 0.0406
722 K, x1 = 0.2478	0.255 ± 0.0229
722 K, x1 = 0.2796	0.304 ± 0.0406
722 K, x1 = 0.3239	0.337 ± 0.0406
722 K, x1 = 0.3424	0.323 ± 0.0232
722 K, x1 = 0.3664	0.357 ± 0.0406
722 K, x1 = 0.4104	0.377 ± 0.0406
722 K, x1 = 0.4155	0.361 ± 0.0232
722 K, x1 = 0.4432	0.385 ± 0.0406
722 K, x1 = 0.4746	0.378 ± 0.0232
722 K, x1 = 0.4747	0.393 ± 0.0406
722 K, x1 = 0.5057	0.402 ± 0.0406
722 K, x1 = 0.5202	0.377 ± 0.0232
722 K, x1 = 0.5368	0.404 ± 0.0406
722 K, x1 = 0.5565	0.378 ± 0.0232
722 K, x1 = 0.562	0.406 ± 0.0406
722 K, x1 = 0.5901	0.379 ± 0.0232
722 K, x1 = 0.6188	0.375 ± 0.0232
722 K, x1 = 0.6444	0.37 ± 0.0232
722 K, x1 = 0.6659	0.363 ± 0.0232
722 K, x1 = 0.6846	0.357 ± 0.0232
722 K, x1 = 0.761	0.326 ± 0.0232
722 K, x1 = 0.8068	0.305 ± 0.0227
722 K, x1 = 0.8495	0.256 ± 0.0225
722 K, x1 = 0.9004	0.182 ± 0.0225
722 K, x1 = 0.948	0.102 ± 0.0225
923 K, x1 = 0.07739	0.092 ± 0.0454
923 K, x1 = 0.1307	0.149 ± 0.0287
923 K, x1 = 0.1593	0.182 ± 0.0454
923 K, x1 = 0.2353	0.252 ± 0.0287
923 K, x1 = 0.2736	0.284 ± 0.0454
923 K, x1 = 0.3154	0.313 ± 0.0287
923 K, x1 = 0.3262	0.315 ± 0.0454
923 K, x1 = 0.3711	0.346 ± 0.0454
923 K, x1 = 0.3774	0.352 ± 0.0287
923 K, x1 = 0.4101	0.361 ± 0.0454
923 K, x1 = 0.4408	0.38 ± 0.0287
923 K, x1 = 0.4434	0.384 ± 0.0454
923 K, x1 = 0.4743	0.395 ± 0.0454
923 K, x1 = 0.4896	0.398 ± 0.0287
923 K, x1 = 0.4981	0.403 ± 0.0454
